Reference: paper PMC2882596 (Journal of the American Chemical Society, 2010)

Experiments:
Bacillus subtilus 168 = experiment: MIC, serial dilution liquid culture, overnight in 96-well plates; format: cell-based, Bacillus subtilis; settings: wild type scaffold variants, equivalent potency
Staph aureus strains = experiment: Antibiotic potency of wild type thiocillin variants; format: cell-based, Staphylococcus aureus; settings: wild type scaffold variants, equivalent potency

With YM-266183 as the substance, how does the “antibiotic potency against B subtilis” value (Bacillus subtilus 168) read?
Its value is “submicromolar”.

What about the “antibiotic potency against Staph aureus strains” value (Staph aureus strains) of the same substance?
The value was “submicromolar”.

With Thiocillin I as the substance, how does the “antibiotic potency against B subtilis” value (Bacillus subtilus 168) read?
The value was “submicromolar”.

What about the “antibiotic potency against Staph aureus strains” value (Staph aureus strains) of the same substance?
Its value is “submicromolar”.

What does the source list for Micrococcin P1?
antibiotic potency against B subtilis (Bacillus subtilus 168): submicromolar; antibiotic potency against Staph aureus strains (Staph aureus strains): submicromolar

Which “antibiotic potency against B subtilis” value (Bacillus subtilus 168) does the source give for Micrococcin P2 here?
The value was “submicromolar”.

And the “antibiotic potency against Staph aureus strains” value (Staph aureus strains)?
Its value is “submicromolar”.
